Experimental data: publication PMC7224190, “Pharmacological inhibition of PRMT7 links arginine monomethylation to the cellular stress response” (Nature Communications, 2020)

What was measured:
Assay in all cases: biochemical
Parameters in all cases: radiometric methyltransferase selectivity assay with tritiated SAM, per cent activity
Conditions in all cases: read-out: % of control remaining
G9A = target: T1, G9A (Homo sapiens, UniProt Q96KQ7)
T1 construct: gene EHMT2
T1 sequence (Q96KQ7 1-1210): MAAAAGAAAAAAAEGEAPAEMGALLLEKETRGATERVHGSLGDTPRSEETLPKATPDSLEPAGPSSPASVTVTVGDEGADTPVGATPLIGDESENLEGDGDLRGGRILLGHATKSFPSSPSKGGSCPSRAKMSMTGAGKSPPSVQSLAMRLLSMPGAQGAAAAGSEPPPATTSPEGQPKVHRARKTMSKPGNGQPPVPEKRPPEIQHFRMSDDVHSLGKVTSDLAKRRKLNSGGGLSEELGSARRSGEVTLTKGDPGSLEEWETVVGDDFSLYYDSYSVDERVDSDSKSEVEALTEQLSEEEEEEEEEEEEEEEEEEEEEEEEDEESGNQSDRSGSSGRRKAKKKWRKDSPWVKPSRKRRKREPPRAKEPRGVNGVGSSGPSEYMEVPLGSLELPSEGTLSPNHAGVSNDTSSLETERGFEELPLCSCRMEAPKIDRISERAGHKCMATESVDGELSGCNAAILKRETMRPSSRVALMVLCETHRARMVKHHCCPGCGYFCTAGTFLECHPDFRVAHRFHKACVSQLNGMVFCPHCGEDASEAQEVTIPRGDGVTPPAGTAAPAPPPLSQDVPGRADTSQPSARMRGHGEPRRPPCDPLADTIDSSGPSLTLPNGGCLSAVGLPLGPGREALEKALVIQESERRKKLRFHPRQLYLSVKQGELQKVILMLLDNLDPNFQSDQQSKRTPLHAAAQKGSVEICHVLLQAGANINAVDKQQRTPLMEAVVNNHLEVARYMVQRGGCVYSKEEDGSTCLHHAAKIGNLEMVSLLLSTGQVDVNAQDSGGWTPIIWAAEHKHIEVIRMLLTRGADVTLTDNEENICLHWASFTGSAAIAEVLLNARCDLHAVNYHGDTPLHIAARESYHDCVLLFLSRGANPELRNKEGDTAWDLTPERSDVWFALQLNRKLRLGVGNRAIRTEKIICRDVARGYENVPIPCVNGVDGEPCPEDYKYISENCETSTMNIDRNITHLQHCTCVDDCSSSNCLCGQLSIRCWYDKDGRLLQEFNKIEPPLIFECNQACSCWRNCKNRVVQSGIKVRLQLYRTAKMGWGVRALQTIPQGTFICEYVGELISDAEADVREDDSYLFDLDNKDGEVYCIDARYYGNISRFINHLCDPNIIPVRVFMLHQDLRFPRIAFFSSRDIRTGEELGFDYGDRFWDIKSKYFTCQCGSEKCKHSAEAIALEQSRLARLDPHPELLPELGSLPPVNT
Procedure, shortened: (§1)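 Radiometric methyltransferase assays with ³H-SAM and substrate near apparent Km, compound tested at 1 and 10 μM. Methyl incorporation into biotinylated substrate read by scintillation proximity after guanidine quench; no-compound = 100%, no-enzyme = 0% activity.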

PRMT4 = target: T2, PRMT4 (Homo sapiens, UniProt Q86X55)
T2 construct: gene CARM1
T2 sequence (Q86X55 1-608): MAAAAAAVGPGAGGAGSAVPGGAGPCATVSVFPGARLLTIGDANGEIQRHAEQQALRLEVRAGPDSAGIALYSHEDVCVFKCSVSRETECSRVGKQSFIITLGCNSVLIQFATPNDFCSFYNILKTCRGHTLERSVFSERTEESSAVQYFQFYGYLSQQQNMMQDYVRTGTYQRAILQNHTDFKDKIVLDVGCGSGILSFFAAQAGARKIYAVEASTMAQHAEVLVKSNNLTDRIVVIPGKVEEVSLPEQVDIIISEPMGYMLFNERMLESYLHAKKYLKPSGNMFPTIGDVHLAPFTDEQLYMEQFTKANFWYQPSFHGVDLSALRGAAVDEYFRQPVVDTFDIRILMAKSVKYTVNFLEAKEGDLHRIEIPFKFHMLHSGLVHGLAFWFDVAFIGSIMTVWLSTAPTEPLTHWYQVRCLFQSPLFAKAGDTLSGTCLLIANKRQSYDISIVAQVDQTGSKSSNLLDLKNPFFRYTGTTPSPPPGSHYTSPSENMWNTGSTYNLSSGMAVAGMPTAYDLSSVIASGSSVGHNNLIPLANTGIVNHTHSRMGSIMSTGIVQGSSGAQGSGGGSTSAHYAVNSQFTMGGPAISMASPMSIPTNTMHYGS
Procedure, shortened: as §1

SUV39H2 = SUV39H2 (Homo sapiens, UniProt Q9H5I1)
Procedure, shortened: as §1

Chain of SUV39H2 (Q9H5I1 whole entry): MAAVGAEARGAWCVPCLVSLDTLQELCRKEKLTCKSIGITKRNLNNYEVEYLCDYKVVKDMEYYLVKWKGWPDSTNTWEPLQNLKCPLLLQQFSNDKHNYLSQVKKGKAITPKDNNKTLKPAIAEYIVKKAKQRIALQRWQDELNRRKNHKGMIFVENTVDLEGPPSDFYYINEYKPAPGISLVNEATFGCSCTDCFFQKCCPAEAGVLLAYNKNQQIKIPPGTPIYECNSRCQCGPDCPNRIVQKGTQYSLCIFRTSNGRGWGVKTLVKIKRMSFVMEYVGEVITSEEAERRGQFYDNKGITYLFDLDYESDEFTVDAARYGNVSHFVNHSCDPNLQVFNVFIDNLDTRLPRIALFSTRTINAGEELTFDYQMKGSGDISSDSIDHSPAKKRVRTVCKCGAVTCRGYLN

Molecule `Nc1ncnc2c1ncn2[C@@H]1O[C@H](CSCCCCNCc2cccc(-c3ccc(Cl)cc3)c2)[C@@H](O)[C@H]1O` [SGC8158] has a remaining activity at 1 µM (G9A) of 100%, a remaining activity at 10 µM (G9A) of 99% and a remaining activity at 1 µM (PRMT4) of 7%. It also gave a remaining activity at 10 µM (PRMT4) of 0%, a remaining activity at 1 µM (SUV39H2) of 103% and a remaining activity at 10 µM (SUV39H2) of 102%.

In the case of `CC1(C)O[C@@H]2[C@H](O1)[C@@H](CSCCCCNCc1cccc(-c3ccc(Cl)cc3)c1)O[C@H]2n1cnc2c(N)ncnc21` [SGC8158N], the remaining activity at 1 µM (G9A) is reported as 99%, the remaining activity at 10 µM (G9A) is reported as 98% and the remaining activity at 1 µM (PRMT4) is reported as 101%. For the same molecule, the remaining activity at 10 µM (PRMT4) was 100%, the remaining activity at 1 µM (SUV39H2) was 103% and the remaining activity at 10 µM (SUV39H2) was 78%.
